In experiment [1] the test system is cultured osteoblasts. The experiment can be described thus: Collagen synthesis (4-hydroxyproline content). To be noted: only at a higher concentration of 10 μM. The experiment is classed as cell-based, rat. How it is done: von Kossa staining: Osteoblasts were cultured in DMEM containing 50 μg/ml vitamin C and 10 mM β-glycerophosphate for 2 weeks and the medium was changed every 3 days. To examine nodule formation, the cells were fixed in 4% paraformaldehyde for 10 min, rinsed with water, stained with 1% silver nitrate, placed under a UV lamp for 30 min and rinsed with water before treating with 5% sodium thiosulfate for 2 min. The cells were then washed twice with water and counterstained with 1% Safranin-O to visualize the matrix. The number of nodules formed per well was counted under a light microscope. Collagen synthesis was determined by measuring the 4-hydroxyproline content in cultured osteoblasts. Cells cultured in DMEM containing 50 μg/ml vitamin C and 10 mM β-glycerophosphate for 2 weeks were hydrolyzed in 6N HCl for 16 h at 116° C. After lyophilizing and reconstituting a lysate in distilled water, the amount of 4-hydroxyproline was determined by spectrophotometry at 550 nm as described by Berg (1982) Meth Enzymol. 82: 372–398.

Experiment [2] deals with ovariectomized adult female rats. The experiment in a line: Biomechanical three-point bending test of femurs of OVX rats. Type of experiment: in vivo, rat. On the procedure:
Ovariectomy and cut of sciatic nerve: Ovariectomy and cut of sciatic nerve were performed in adult female and male rats (3 month-old), respectively. After surgery, the rats were injected with Indazole 1 (i.p., 1 mg/Kg) or a vehicle daily for 4 weeks. On the day following the last injection, the rats were sacrificed and their tibia and femur were removed. Biomechanical three-point bending test: Mechanical properties of bone tissues were measured via a three-point bending test using a MTS-858 testing machine (MTS System Inc., Minneapolis, Minn.). The span of two support points was 20 millimeters and the deformation rate was 1 mm/min. Load/deformation curves were acquired by Team 490 software (version 4.10, Nicolet Instrument Technologies Inc., Madison, Wis.). Sigma Plot 6.0 software (SPSS Inc., Chicago, Ill.) was used to calculate extrinsic material properties of bone samples, including maximal load, ultimate load, energy to maximal load, energy to ultimate load, and linear stiffness. Energy to maximal load and energy to ultimate load were calculated as the areas under the load/deforming curves. Stiffness was calculated as the slope of the linear portion of the load/deformation curves. The cross-sectional moment of inertia was calculated under the assumption that the cross-sections were elliptically shaped (Turner et al., The effects of fluoridated water on bone strength. Orthop Res (1992) 10: 581–587). Maximal stress, ultimate stress, and elastic modulus (Young's modulus) were calculated using the methods described in Turner et al., Basic biomechanical measurements of bone: a tutorial, Bone (1993) 14:595–608.

The subject of experiment [3] is adult male rats. The experiment can be described thus: Bone loss induced by the cut of sciatic nerve. The experiment is classed as in vivo, rat. On the set-up: Tibia BMD / Tibia BMC / Femur BMD / Femur BMC: unit not given here. As to conditions: for Bone volume / Femur BMC / Femur BMD / Femur length / Femur weight / Tibia BMC / Tibia BMD / Tibia length / Tibia weight: i.p. 1 mg/kg daily for 1 month, mean ± S.E., n=10. From the text: Bone histomorphometry: After formalin fixation of tibia was completed, the tibiae were then decalcified in 0.5 N hydrochloric acid, dehydrated in an ascending series of ethanol solution and acetone, and embedded in paraffin. Serial sections (5 μm) were cut longitudinally and stained with Mayer's hematoxylin-eosin solution (Yang et al. (1993) Calcif Tissue Int 52:57–61). Images of the growth plate and proximal tibia were photographed using a photoMicroGraphic Digitize integrate System (MGDS; Total-Integra Technology Co., Ltd., Taipei, Taiwan). Bone volume measurements were performed on the whole secondary spongiosa, which is located under the primary spongiosa and characterized by a network of larger trabeculae. Bone volumes were calculated using an image analysis software. All measurements were done in a single-blind fashion. Ovariectomy and cut of sciatic nerve: Ovariectomy and cut of sciatic nerve were performed in adult female and male rats (3 month-old), respectively. After surgery, the rats were injected with Indazole 1 (i.p., 1 mg/Kg) or a vehicle daily for 4 weeks. On the day following the last injection, the rats were sacrificed and their tibia and femur were removed. Tibia and femur Preparation: At the end of the program, the rats were sacrificed by decapitation. The tibiae were removed, cleaned of soft tissue, and the length of the tibia was measured with a precision caliper (±0.05 mm) as described by Weinreb et al. (1991) J Bone Miner Res 6:725–731. The tibiae were fixed in 10% formaldehyde for 48 h at 4° C. for bone histomorphometry analysis. Some of the tibia and femur were also removed and kept at −20° C. for bone mineral analysis. Analysis of bone mineral density (BMD) and content (BMC): BMD and BMC of the tibia and femur were measured with a dual-energy X-ray absorptiometer (DEXA, XR-26; Norland, Fort Atkinson, Wis.). The mode adapted to the measurements of small subjects was adopted. A coefficient of variation of 0.7% was calculated from daily measurements of BMD on a lumbar phantom for more than 1 year (Yang et al. (1998) Calcif Tissue Int 63:86–90). The tibia and femur were thawed to room temperature before bone mineral analysis. The whole tibiae and femur were scanned and BMD and BMC were measured by absorptiometer.

The mark [4] stands for this setting: femurs, OVX rats, i.p. 1 mg/kg daily for 4 weeks.

On to `OCc1ccc(-c2nn(Cc3ccccc3)c3ccccc23)o1` [Indazole 1, 1-benzyl-3-(5′-hydroxymethyl-2′-furyl)-indazole], for which the collagen synthesis entry in experiment [1] was “increased”. In experiment [2] (setting [4]), this compound yielded a Maximal load of 100.5 ± 3.0 N, a Ultimate load of 79.8 ± 3.3 N and a Ultimate stress of 14.6 ± 2.5 Mpa. In addition, in experiment [2] (treated OVX rats), the “ultimate stress and Young's modulus of femurs compared with sham-operated controls” value was “only slightly lower”. In experiment [3] (1 mg/kg daily for 4 weeks immediately after the cut of sciatic nerve), the “bone loss induced by nerve section” value was “antagonized the bone loss”. In experiment [3] (Contralateral side), the Bone volume was found to be 11.9 ± 0.98%, the “Femur BMC” value came out at 0.419 ± 0.016, the “Femur BMD” value came to 0.132 ± 0.003 and the Femur length is on record as 3.95 ± 0.02 cm. In experiment [3] (Contralateral side), the Femur weight stood at 1.16 ± 0.03 g, the “Tibia BMC” value worked out at 0.282 ± 0.013, the “Tibia BMD” value came out at 0.106 ± 0.002 and the Tibia length worked out at 4.36 ± 0.01 cm. This compound displayed a Tibia weight in experiment [3] (Contralateral side) of 0.92 ± 0.03 g. Moreover, in experiment [3] (Surgery side), the Bone volume is 9.43 ± 0.8%, the “Femur BMC” value is 0.394 ± 0.015, the “Femur BMD” value is recorded as 0.129 ± 0.003 and the Femur length came out at 3.96 ± 0.01 cm. In experiment [3] (Surgery side), the Femur weight came to 1.17 ± 0.03 g, the “Tibia BMC” value amounted to 0.298 ± 0.014, the “Tibia BMD” value stood at 0.106 ± 0.002 and the Tibia length amounted to 4.35 ± 0.01 cm. This compound displayed a Tibia weight in experiment [3] (Surgery side) of 0.91 ± 0.03 g.

The values above are taken from US7160916B2, “Method of increasing bone density or treating osteoporosis” (Yung Shin Pharmaceutical Ind. Co., Ltd., priority 2003, dated 2007).
